{
  "source": "patent US20070275936A1",
  "about": "“Formulations and Treatment Methods” (priority 1998, published 2007)",
  "test_system": "Immune cell subsets",
  "test": "Human HIV clinical protocol: immune phenotypes by flow cytometry",
  "assay_type": "in vivo",
  "conditions": "for CD8+CD16+CD38+ cells, median: Baseline 8; for CD8−CD16+ cells, median: Baseline 53; for CD8+CD69+CD25− cells, median: Baseline 18; for Activated T cells (CD8+ CD69+ CD25−), median: about 1 week after last dose",
  "protocol": "Patients infected with HIV are dosed with an i.m. injection of 25-200 mg of BrEA using a formulation containing 100 mg/mL BrEA, PEG300 ˜30% v/v, propylene glycol 30% v/v, benzyl benzoate 30% v/v and benzyl alcohol 2% v/v. The pateints are dosed once per day for 5 consecutive days followed by a period of about 28 days or longer with no BrEA treatment. The patients were them provided with one more course of 5 consecutive days of dosing with BrEA, followed by a non-dosing period of at least about 28 days. Up to 8 rounds of 5-day treatments, followed by at least 28 days of no dosing were provided. Immunological responses were then assayed using blood or plasma samples from the patients by flow cytometry and other known analytical methods. Immune cell subsets or other measured markers were assayed within 24 hours of obtaining the sample from each patient. Labeled antibodies, e.g., anti-CD antigen antibodies conjugated with fluorescent dyes (FITC, phycoerythrin, allophycocyanin or PerCP), were prepared and used essentially according to standard protocols using commercially available reagents, see, e.g., PharMingen, 1998 Research Products Catalog, technical protocols at pages 732-774, human cell surface molecules at pages 182-295 and mouse, rat and hamster cell surface molecules at pages 2-173 and cytokine and chemokine reagents at pages 344-489.\nOtherwise untreated patients with CD4 counts of ≧200/μL and HIV-1 viral RNA between 5,000 and 1,000,000 copies/mL (branched-DNA, version 3.0, Bayer, Tarrytown, N.Y.) provided informed consent and were enrolled into a Phase I/II dose-escalation study of the safety and efficacy of intramuscular injections of BrEA. The protocol was conducted in South Africa. In the first cohort, four patients received an initial injection of 1 mL (50 mg), followed by a safety and pharmocokinetic study for seven days, and then received five daily injections of 1 mL (50 mg). The second cohort of 8 patients was randomized in a 1:2 ratio to receive either 50 mg (1 mL) or 100 mg (2 mL) on the same schedule. Patients were allowed at the discretion of the investigators to receive up to three additional courses each, repeated after 28 days of observation. The protocol was amended to introduce an improved formulation, and to extend the initial pharmacokinetic and safety period to 14 days, the observation period following the five daily doses to 35 days, and to allow up to 7 treatment courses. A third cohort of 24 patients was randomized in a 1:2:4 ratio to receive either 50 mg (0.5 mL), 100 mg (1 mL), or 200 mg (2 mL) of BrEA. The patients were all male, since initial safety studies are not permitted in females in South Africa. Within the group of 39 patients randomized, the ethnic demographic included was 18 Caucasian, 17 African, and 4 other. The average age was 34 (range 20-63), the average initial CD4/μL was 434 (range 176-1210), and the average viral load was 13,772 copies/mL (range 3,020-158,489). Patients underwent physical examinations and provided samples for chemistry, hematology, virology and immunology testing approximately every two weeks.\nCourse 1, 2 and 3 refer to each 5 consecutive day treatment regimen of one daily injection with BrEA (50 or 100 mg BrEA per injection). The formulation contained 100 mg/mL BrEA, PEG300 ˜30% v/v, propylene glycol 30% v/v, benzyl benzoate 30% v/v and benzyl alcohol 2% v/v. The data shown below was obtained from patient blood samples at baseline (on the day dosing was initiated) and at various times after the patients received at least one dose of BrEA. […] The patients in this protocol initially had CD4 counts of at least 200 per mm^3 and a serum HIV RNA load of 5,000 to 1×10^6 RNA copies/mL. […] Average CD4 IL-10 production dropped from a median of 66% to 4% of the cells, while CD4 IFNγ went from a median of 8% to 63%, leading to a Th2 to a Th1 shift in cytokine production. […]",
  "note": "Marks after values point to notes of the source that are not given here.",
  "data": [
    {"smiles": "C[C@]12CC[C@H](O)C[C@@H]1CC[C@@H]1[C@@H]2CC[C@]2(C)C(=O)[C@H](Br)C[C@@H]12", "note": "[BrEA, 16α-bromo-3β-hydroxy-5α-androstane-17-one]", "values": [
      {"measurement": "Early Activation-Stage CD8+ T cells: Time-averaged AUC Increase Mean ± SEM", "setting": "CD3+ CD8+ CD69+ CD25−, n=36, p=0.049", "value": "67 ± 33", "unit": "%"},
      {"measurement": "LAK: Time-averaged AUC Increase Mean ± SEM", "setting": "CD8+ CD16+, n=36, p=0.19", "value": "13 ± 9", "unit": "%"},
      {"measurement": "NK: Time-averaged AUC Increase Mean ± SEM", "setting": "CD8−CD16+, n=36, p=0.20", "value": "29 ± 22", "unit": "%"},
      {"measurement": "Lin− HLA-DR+ CD11c+/CD123+ cells, median", "setting": "Course 1, Baseline 3.2, n=10, p<0.001", "value": 17.7, "unit": "cells/μL"},
      {"measurement": "CD8+CD16+CD38+ cells, median", "setting": "Course 1, n=10, p<0.001", "value": 27, "unit": "cells/μL"},
      {"measurement": "CD8−CD16+ cells, median", "setting": "Course 1, n=12, p<0.001", "value": 253, "unit": "cells/μL"},
      {"measurement": "CD8+CD69+CD25− cells, median", "setting": "Course 1, HIV patients, 50 or 100 mg i.m. daily ×5, n=13, p<0.001", "value": 54, "unit": "cells/μL"},
      {"measurement": "CD8+CD16+CD38+ cells, median", "setting": "Course 2, n=4, p=0.047", "value": 28, "unit": "cells/μL"},
      {"measurement": "CD8+CD69+CD25− cells, median", "setting": "Course 2, n=9, p<0.001", "value": 56, "unit": "cells/μL"},
      {"measurement": "CD8−CD16+ cells, median", "setting": "Course 2, n=4, p=0.02", "value": 288, "unit": "cells/μL"},
      {"measurement": "Lin− HLA-DR+ CD11c+/CD123+ cells, median", "setting": "Course 2, baseline value from initiation of 2nd course = 6.4, n=5, p=0.02", "value": "11.4^c cells/μL"},
      {"measurement": "CD8+CD16+CD38+ cells, median", "setting": "Course 3, n=4, p=0.02", "value": 25, "unit": "cells/μL"},
      {"measurement": "CD8+CD69+CD25− cells, median", "setting": "Course 3, n=4, p=0.04", "value": 75, "unit": "cells/μL"},
      {"measurement": "CD8−CD16+ cells, median", "setting": "Course 3, n=2, p=0.04", "value": 249, "unit": "cells/μL"},
      {"measurement": "Lin− HLA-DR+ CD11c+/CD123+ cells, median", "setting": "Course 3, baseline value from initiation of 2nd course = 6.4, n=4, p=0.04", "value": "14.7^c cells/μL"},
      {"measurement": "DC1 (CD11c+) Dendritic Cells: Time-averaged AUC Increase Mean ± SEM", "setting": "Lineage− HLA-DR+ CD11c+, n=31, p=0.010", "value": "50 ± 18", "unit": "%"},
      {"measurement": "DC2 (CD123+) Dendritic Cells: Time-averaged AUC Increase Mean ± SEM", "setting": "Lineage− HLA-DR+ CD123+, n=31, p=0.021", "value": "32 ± 13", "unit": "%"},
      {"measurement": "Activated T cells (CD8+ CD69+ CD25−), median", "setting": "Treatment 1, treated, baseline 19", "value": "54 (n = 13, p < 0.001) cells/μL"},
      {"measurement": "Dendritic cells (Lin− HLA-DR+ CD123+/CD11+), median", "setting": "Treatment 1, treated, baseline 3.5", "value": "18 (n = 10, p = 0.001) cells/μL"},
      {"measurement": "LAK cells (CD8+ CD16+ CD38+), median", "setting": "Treatment 1, treated, baseline 8", "value": "27 (n = 10, p < 0.001) cells/μL"},
      {"measurement": "NK (ADCC responders) cells (CD8− CD16+), median", "setting": "Treatment 1, treated, baseline 54", "value": "253 (n = 12, p < 0.001) cells/μL"},
      {"measurement": "Activated T cells (CD8+ CD69+ CD25−), median", "setting": "Treatment 2, treated, baseline 19", "value": "56 (n = 9, p < 0.001) cells/μL"},
      {"measurement": "Dendritic cells (Lin− HLA-DR+ CD123+/CD11+), median", "setting": "Treatment 2, treated, baseline 6.5", "value": "11.5 (n = 5, p = 0.02) cells/μL"},
      {"measurement": "LAK cells (CD8+ CD16+ CD38+), median", "setting": "Treatment 2, treated, baseline 12", "value": "28 (n = 4, p = 0.04) cells/μL"},
      {"measurement": "NK (ADCC responders) cells (CD8− CD16+), median", "setting": "Treatment 2, treated, baseline 58", "value": "285 (n = 4, p = 0.02) cells/μL"},
      {"measurement": "Activated T cells (CD8+ CD69+ CD25−), median", "setting": "Treatment 3, treated, baseline 18", "value": "74 (n = 4, p = 0.04) cells/μL"},
      {"measurement": "Dendritic cells (Lin− HLA-DR+ CD123+/CD11+), median", "setting": "Treatment 3, treated, baseline 6", "value": "55 (n = 4, p = 0.04) cells/μL"},
      {"measurement": "LAK cells (CD8+ CD16+ CD38+), median", "setting": "Treatment 3, treated, baseline 12", "value": "25 (n = 4, p = 0.02) cells/μL"},
      {"measurement": "NK (ADCC responders) cells (CD8− CD16+), median", "setting": "Treatment 3, treated, baseline 56", "value": "250 (n = 2, p = 0.04) cells/μL"},
      {"measurement": "CD4 IL-10 production, median % of the cells", "setting": "after one course (5 daily i.m. injections), dropped from 66%", "value": 4, "unit": "%"},
      {"measurement": "CD4 IFNγ, median % of the cells", "setting": "after one course (5 daily i.m. injections), went from 8%", "value": 63, "unit": "%"},
      {"measurement": "DC1 (CD11c+) Dendritic Cells: Maximum Analysis Visit Responses Mean", "setting": "analysis visit day 22", "value": "58% (22)"},
      {"measurement": "NK: Maximum Analysis Visit Responses Mean", "setting": "analysis visit day 36", "value": "41% (36)"},
      {"measurement": "LAK: Maximum Analysis Visit Responses Mean", "setting": "analysis visit day 67", "value": "34% (67)"},
      {"measurement": "DC2 (CD123+) Dendritic Cells: Maximum Analysis Visit Responses Mean", "setting": "analysis visit day 80", "value": "44% (80)"},
      {"measurement": "Total Dendritic Cells: Maximum Analysis Visit Responses Mean", "setting": "analysis visit day 139", "value": "38% (139)"},
      {"measurement": "Early Activation-Stage CD8+ T cells: Maximum Analysis Visit Responses Mean", "setting": "analysis visit day 153", "value": "162% (153)"},
      {"measurement": "DC1 (CD11c+) Dendritic Cells: Maximum Individual Patient Responses Mean (range)", "setting": "change from baseline, n=31", "value": "130% (−20 to 870%)"},
      {"measurement": "DC2 (CD123+) Dendritic Cells: Maximum Individual Patient Responses Mean (range)", "setting": "change from baseline, n=31", "value": "100% (−30 to 480%)"},
      {"measurement": "Total Dendritic Cells: Maximum Individual Patient Responses Mean (range)", "setting": "change from baseline, n=31", "value": "100% (−20 to 600%)"},
      {"measurement": "Early Activation-Stage CD8+ T cells: Maximum Individual Patient Responses Mean (range)", "setting": "change from baseline, n=36", "value": "210% (0 to 3,090%)"},
      {"measurement": "LAK: Maximum Individual Patient Responses Mean (range)", "setting": "change from baseline, n=36", "value": "90% (−90 to 630%)"},
      {"measurement": "NK: Maximum Individual Patient Responses Mean (range)", "setting": "change from baseline, n=36", "value": "140% (−40 to 1,220%)"},
      {"measurement": "Activated CD8+ T cells: Time-averaged AUC Increase Mean ± SEM", "setting": "i.m. BrEA, HIV patients, CD3+ CD8+ and CD69+ or CD25+, n=36, p=0.005", "value": "15 ± 5", "unit": "%"},
      {"measurement": "Activated CD8+ T cells: Maximum Analysis Visit Responses Mean", "setting": "i.m. BrEA, HIV patients, analysis visit day 22", "value": "25% (22)"},
      {"measurement": "Activated CD8+ T cells: Maximum Individual Patient Responses Mean (range)", "setting": "i.m. BrEA, HIV patients, change from baseline, n=36", "value": "70% (−10 to 340%)"},
      {"measurement": "DC1 to DC2 Ratio: Time-averaged AUC Increase Mean ± SEM", "setting": "n=31, p=0.003", "value": "44 ± 13", "unit": "%"},
      {"measurement": "Total Dendritic Cells: Time-averaged AUC Increase Mean ± SEM", "setting": "n=31, p=0.010", "value": "38 ± 14", "unit": "%"}
    ]}
  ]
}
